The subject of one data set is H175. Kind of data set: Growth inhibition of tumor cell lines compared to TAXOL: H175. It counts as cell-based. The procedure:
(§1) In addition, the ability of compounds 323a/c and 343 to inhibit growth of a number of tumor cell lines was tested and compared to TAXOL's ability to inhibit growth of these tumor cell lines.

The test system of a further data set is NCI 60-cell line panel. Kind of data set: NCI 60-cell line human tumor screen (sulforhodamine B). It counts as cell-based. To be noted: 48 hours incubation, 10^−6 to 10^−10 molar. The text has this: The NCI 60-cell line human tumor screen is a measure of the effectiveness of a compound for inhibiting or killing various human cancers. It is a set of 60 different cancer cell lines against which chemical compounds can be tested against to determine if the compound has anti-cancer activity. Each compound has an individual “fingerprint” based on effectiveness in killing each of the 60 cancer cell lines.
The anti-cancer activity of the synthesized (+)- and (−)-salicylihalamide-A compounds of the present invention (compounds 78 in FIG. 10 and 301a/301c in FIG. 14.) was indistinguishable. […] Salicylihalamide derivatives, showing increased stability over natural salicylihalamide, were tested in the NCI 60 cell-line screen. This screen is an art recognized model. Prior to assay, synthesized compounds were stored in dimethylsulfoxide at −70° C. Five different test concentrations of each compound were prepared by diluting the stock solution into complete medium. Sample concentrations were 2× the final concentration and range from 10^−6 and 10^−10 molar. An aliquot of each concentration of each compound was added to separate microtiter wells containing the respective cell lines in culture medium. The plates were incubated for 48 hours at 37° C. with 5% CO2 and 100% humidity. Adherent cells were fixed by addition of cold 50% trichloracetic acid and incubation at 4° C. for 60 minutes. Suspended cells were fixed to the bottom of the well by addition of 80% trichloracetic acid. The supernatant was removed from each well and then each well was washed with deionized water and allowed to dry. Sulforhodamine B solution was added to each well and allowed to incubate for 10 minutes at room temperature. Unbound sulforhodamine B was removed by washing with 1% acetic acid. The wells were allowed to dry. Bound sulforhodamine B was solubilized using 10 mM Tris base and the optical density at 515 nanometers was determined.

In data set [1] the test system is human melanoma cell line SK-MEL-5. Kind of data set: Growth inhibition of the SK-MEL-5 human melanoma cell line (MTT assay). The data set is classed as cell-based. Conditions: for GI50: Homo sapiens; for growth inhibitory activity in the cell-based assay: SK-MEL-5 cell-based assay. How it is done: A cell-based assay looking for growth inhibition of the SK-MEL 5 human melanoma cell line was performed.
In general terms: Formazan colour is commonly taken as a measure of viable cells.

A further data set relates to H1264. Kind of data set: Growth inhibition of tumor cell lines compared to TAXOL: H1264. The data set is classed as cell-based. The procedure: as §1
In data set [2] the target is T1, purified reconstituted V-ATPase from bovine brain (Bos taurus, UniProt P23956+P61420+Q29466+Q2TA24).
T1 construct: from tissue; host or cells: bovine brain
Kind of data set: Inhibition of purified reconstituted V-ATPase (proton pumping). The data set is classed as biochemical. The source says: Therefore, the present invention provides a method for inhibiting the proton-pumping activity of V-ATPase by contacting V-ATPase, either in vitro or in vivo with the compounds of the present invention. […] See Boyd, M. R. et al., J Pharmacol. Exp. Ther. 297, 114-120 (2001); see also, PCT publication WO 00/51589 of Boyd et al. V-ATPase is composed of an ATPase domain and a proton translocating membraneous channel. […] See Crider, Xie and Stone, J. Biol. Chem. 269:17379-17381 (1994) for the experimental procedure for binding. […] See Example 7 and Table 5 below. See also Bill. Crider, Xie and Stone, J Biol. Chem. 269:17379-17381 (1994).
Others in the art typically use crude membrane preparations to assay V-ATPase activity.

Another data set concerns H2058. Kind of data set: Growth inhibition of tumor cell lines compared to TAXOL: H2058. It counts as cell-based. How it is done: as §1
For a further data set, the system named is H358. Kind of data set: Growth inhibition of tumor cell lines compared to TAXOL: H358. It counts as cell-based. To be noted: Homo sapiens, NCI-H358. How it is done:
as §1

A further data set has as its system H1299. Kind of data set: Growth inhibition of tumor cell lines compared to TAXOL: H1299. The data set is classed as cell-based. To be noted: Homo sapiens, NCI-H1299. The procedure: as §1
For the next data set, the system named is H2009. Kind of data set: Growth inhibition of tumor cell lines compared to TAXOL: H2009. The data set is classed as cell-based. To be noted: Homo sapiens, NCI-H2009. How it is done: as §1
The subject of the next data set is SK-MEL-28 cells. Kind of data set: Anti-cancer activity against SK-MEL-28 cells. It counts as cell-based, human. To be noted: at 20 μM. The source says:
The inventor has accomplished the first synthesis of both […] and (−)-salicylihalamide A. The synthesis utilizes a highly efficient, trans-selective ring-closing olefin metathesis for the assembly of the benzolactone skeleton and can be readily adapted to obtain a variety of analogs. […] This cell line is one of the cell lines in the NCI 60 cell line screen.
The absolute configuration of natural salicylihalamide A (1a) was originally misassigned in Boyd et al., 1997. The correct configuration is represented by structure 89. The ultimate proof for this assignment came from a crystallographic analysis of a p-bromobenzoate derivative of salicylihalamide 90, prepared from 73 in a manner similar to the synthesis of 74. […] (−)-salicylihalamide A does have chemotherapeutic activity. […] This cell line is one of the cell lines in the NCI 60 cell line screen.

The mark [3] stands for this setting: purified reconstituted V-ATPase from bovine brain, inhibition of proton pumping, read-out: IC50.
Where [4] appears, read: 48 h, SK-MEL-5, growth determined 2 days after addition by MTT assay, triplicate assays at 4 concentrations, read-out: GI50.

Like-named read-outs stand apart in the source and are kept apart here.

We go through 18 compounds from patent US6936723B2, “Synthetic salicylihalamides, apicularens and derivatives thereof” (Board of Regents, The University of Texas System, priority 2000, dated 2005).

As for `CC/C=C\C=C/C(=O)N/C=C/C[C@H]1C[C@@H](O)[C@@H](C)C/C=C/Cc2cccc(O)c2C(=O)O1` [301a/301c], the GI50 (as a rule, the concentration that inhibits growth by half) in the data set on H175 is 0.2 nM; in data set [1] (SK-MEL-5, 48 h) it was 30 nM; with H1264, 31.6 nM; in the data set on H2058, 3.2 nM; with H358, 1.6 nM; in the data set on H1299, 3.2 nM. In addition, growth with H2009 was halved (GI50) at 2 nM. Besides, the “activity / differential cytotoxicity profile in the NCI 60-cell line screen” value with NCI 60-cell line panel (listed as 1:1 mixture of salicylihalamide A (1) and C22-E isomer 211) is reported as “indistinguishable, within the limits of experimental error, from natural salicylihalamide A”. For the same compound, in data set [2], inhibition was half-maximal at 0.34 nM (IC50).

(+)-salicylihalamide A [Compound 87]: the results for the “activity / differential cytotoxicity profile in the NCI 60-cell line screen” value in the data set on NCI 60-cell line panel and in the data set with NCI 60-cell line panel (listed as ent-301a) were “completerly inactive” and “devoid of growth inhibitory activity”, respectively. Besides, the IC50 (as a rule, the midpoint of a concentration-inhibition curve) in data set [2] (setting [3]) was found to be 270 nM. Besides, the “anti-cancer activity against SK-MEL-28 cells” value in the data set with SK-MEL-28 cells is “inactive”.

As for `C[C@H]1C/C=C/Cc2cccc(O)c2C(=O)OC(C/C=C/NC(=O)C#Cc2ccccc2)C[C@H]1O` (stereo partly shown) [Compound 349], the GI50 in [1] (setting [4]) stood at 300 nM. The IC50 in [2] is 0.75 nM.

Consider `CCCCC#CC(=O)N/C=C/CC1C[C@@H](O)[C@@H](C)C/C=C/Cc2cccc(O)c2C(=O)O1` (stereo partly shown) [Compound 350], for which the GI50 in data set [1] (setting [4]) came to 300 nM. In data set [2], this compound displayed a concentration for half-maximal inhibition (IC50) of 1 nM.

In the case of `CCCCCCCC(=O)OCC[C@H]1C[C@@H](O)[C@@H](C)C/C=C/Cc2cccc(O)c2C(=O)O1` [Compound 355], in data set [1] (setting [4]), the GI50 is over 20000 nM. Moreover, the “growth inhibitory activity in the cell-based assay” value (“growth inhibitory activity” for short) in data set [1] is “completely inactive”. Moreover, the IC50 in data set [2] (setting [3]) was over 1000 nM.

For the compound `CCCCCSC(=O)N/C=C/CC1C[C@@H](O)[C@@H](C)C/C=C/Cc2cccc(O)c2C(=O)O1` (stereo partly shown) [Compound 352], the GI50 in [1] (setting [4]) turned out to be 450 nM. The IC50 in data set [2] stood at 1.8 nM.

Take `CCCCCOC(=O)N/C=C/C[C@H]1C[C@@H](O)[C@@H](C)C/C=C/Cc2cccc(O)c2C(=O)O1` [Compound 351]: in data set [1] (setting [4]), the GI50 was 500 nM. Besides, inhibition in data set [2] was half-maximal at 0.2 nM (IC50).

As for `CO/C1=C\C(C)=C\[C@@H](C)[C@@H](O)[C@@H](C)C/C(C)=C/C=C/[C@H](OC)[C@@H]([C@@H](C)[C@@H](O)[C@H](C)[C@@]2(O)C[C@@H](O)[C@H](C)[C@@H](C(C)C)O2)OC1=O` [Bafilomycin A, reference compound], in data set [2] (setting [3]), the 50% inhibitory concentration (IC50) was found to be 3.1 nM.

As to `CC(=O)O[C@H]1C(=O)[C@@]2(C)[C@H]([C@H](OC(=O)c3ccccc3)[C@]3(O)C[C@H](OC(=O)[C@H](O)[C@@H](NC(=O)c4ccccc4)c4ccccc4)C(C)=C1C3(C)C)[C@]1(OC(C)=O)CO[C@@H]1C[C@@H]2O` [TAXOL, reference compound], the GI50 in the data set with H175 (cell line H175, read-out: GI50) was determined as 5 nM; in the data set with H1264 (cell line H1264, read-out: GI50), 5 nM; in the data set with H2058 (cell line H2058, read-out: GI50), 5 nM; in the data set on H358 (cell line H358, read-out: GI50), 5 nM; with H1299 (cell line H1299, read-out: GI50), 5 nM; in the data set on H2009 (cell line H2009, read-out: GI50), 5 nM.

With `CCCCCCC(=O)N/C=C/C[C@H]1C[C@@H](O)[C@@H](C)C/C=C/Cc2cccc(O)c2C(=O)O1` [Compound 346], in [1] (setting [4]), the concentration for 50% growth inhibition (GI50) came out at 380 nM. The compound also yielded a 50% inhibitory concentration (IC50) in data set [2] of 0.8 nM.

As to `C=CCOC(=O)/C=C/CC1C[C@@H](O)[C@@H](C)C/C=C/Cc2cccc(O)c2C(=O)O1` (stereo partly shown) [Compound 335b], the GI50 in data set [1] (setting [4]) is over 20000 nM. Besides, the “growth inhibitory activity” value in data set [1] is “completely inactive”. Further, the IC50 in data set [2] (setting [3]) is 230 nM.

As for `CCCCCOC(=O)N/C=C/C[C@H]1C[C@@H](O)[C@@H](C)C/C=C/Cc2cccc(OC(=O)c3ccccc3)c2C(=O)O1` [Compound 366], in data set [1] (setting [4]), the GI50 came to 1000 nM. Besides, the IC50 in data set [2] (setting [3]) was found to be 300 nM.

As for `CCCCCCC(=O)N(/C=C/C[C@H]1C[C@@H](O)[C@@H](C)C/C=C/Cc2cccc(O)c2C(=O)O1)C(=O)N/C=C/C[C@H]1C[C@@H](O)[C@@H](C)C/C=C/Cc2cccc(O)c2C(=O)O1` [Compound 345], the GI50 in data set [1] (setting [4]) was found to be 600 nM. This compound returned an IC50 in data set [2] of 3 nM.

As for `CCCCCOC(=O)NCCC[C@H]1C[C@@H](O)[C@@H](C)CCCCc2cccc(O)c2C(=O)O1` [Compound 362], in data set [1] (setting [4]), the GI50 is over 20000 nM. For the same compound, in data set [1], the “growth inhibitory activity” value is reported as “completely abolished antiproliferative potential”. In data set [2], the IC50 was 75.7 nM.

`CC/C=C\C=C/C(=O)N(/C=C/C[C@H]1C[C@@H](O)[C@@H](C)C/C=C/Cc2cccc(O)c2C(=O)O1)C(=O)N/C=C/C[C@H]1C[C@@H](O)[C@@H](C)C/C=C/Cc2cccc(O)c2C(=O)O1` [Compound 343]: the GI50 in the data set with H175 is 0.2 nM; in data set [1] (SK-MEL-5, 48 h), 40 nM; in the data set on H1264, 31.6 nM; in the data set with H2058, 6.3 nM; in the data set with H358 it was 10 nM; in the data set on H1299, 5 nM. This compound yielded a GI50 in the data set on H2009 of 1.6 nM. In data set [2], this compound came in with an IC50 of 0.37 nM.

As to `CC(C)=CCC/C(C)=C/CC/C(C)=C/COC(=O)N/C=C/CC1C[C@@H](O)[C@@H](C)C/C=C/Cc2cccc(O)c2C(=O)O1` (stereo partly shown) [Compound 353], in data set [1] (setting [4]), the GI50 was over 20000 nM. This compound displayed an IC50 in [2] of over 1800 nM.

As for `CCCCCOC(=O)N/C=C/C[C@H]1C[C@@H](O)[C@@H](C)CCCCc2cccc(O)c2C(=O)O1` [Compound 361], the GI50 in data set [1] (setting [4]) turned out to be 8000 nM. Moreover, the “growth inhibitory activity” value in data set [1] was “retained a significant, although attenuated, level of growth inhibitory activity”. Moreover, it took 9.3 nM to reach half-maximal inhibition in [2] (IC50).

As for `CCC=CC=CC(=O)NC=CCC1CC2CC(O)CC(Cc3cccc(O)c3C(=O)O1)O2` (stereo not shown) [Apicularen A], the GI50 in data set [1] (setting [4]) turned out to be 6 nM. Also, the half-maximal inhibitory concentration (IC50) in data set [2] was under 1 nM.
